From patent US20260262643A1, “HERBICIDAL BENZOXAZINES” (FMC CORPORATION, priority 2022, published 2026)

Assays:
[1] = tested on: barnyardgrass; experiment: Test D flooded paddy test; format: in vivo, Echinochloa crus-galli; settings: 250 g ai/ha, applied to paddy water, visual rating after 13 to 14 days, scale 0 to 100 (0 no effect, 100 complete control)
How it was run: (§1)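 Plants at the 2-leaf stage were grown in pots flooded to 3 cm, and compound was applied directly into the paddy water, with depth kept throughout. After 13–14 days in a greenhouse, injury was rated visually against untreated controls on a 0–100 scale (100 = complete control); a dash means not tested.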

[2] = tested on: pigweed, palmer; experiment: Test C postemergence; format: in vivo, Amaranthus palmeri; settings: 10 days
How it was run: (§2)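 Visual injury ratings on a 0–100 scale (100 = complete control) were made against untreated controls 10 days after treatment in the greenhouse. Compounds, formulated with surfactant in non-phytotoxic solvent, were sprayed on soil preemergence or onto one- to two-leaf plants 2–10 cm tall postemergence.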

[3] = tested on: horseweed; experiment: Test C postemergence; format: in vivo, Erigeron canadensis; settings: 10 days
How it was run: as §2

[4] = tested on: blackgrass; experiment: Test C preemergence; format: in vivo, Alopecurus myosuroides; settings: 0 to 100 scale (0 no effect, 100 complete control); for Plant response rating, Blackgrass: Preemergence, 500 g ai/ha, visual rating after 10 days; for Blackgrass plant response rating: Test C, preemergence, 125 g ai/ha
How it was run: as §2

[5] = tested on: ragweed; experiment: Test C postemergence; format: in vivo, Ambrosia artemisiifolia; settings: 10 days
How it was run: as §2

[6] = tested on: soybean; experiment: Test C postemergence; format: in vivo, Glycine max; settings: 10 days
How it was run: as §2

[7] = tested on: ragweed; experiment: Test C preemergence; format: in vivo, Ambrosia artemisiifolia; settings: 0 to 100 scale (0 no effect, 100 complete control); for Plant response rating, Ragweed: Preemergence, 500 g ai/ha, visual rating after 10 days; for Ragweed plant response rating: Test C, preemergence, 125 g ai/ha
How it was run: as §2

[8] = tested on: kochia; experiment: Test C postemergence; format: in vivo, Bassia scoparia; settings: 10 days
How it was run: as §2

[9] = tested on: ducksalad; experiment: Test D flooded paddy test; format: in vivo, Heteranthera limosa; settings: 250 g ai/ha, applied to paddy water, visual rating after 13 to 14 days, scale 0 to 100 (0 no effect, 100 complete control)
How it was run: as §1

[10] = tested on: kochia; experiment: Test C preemergence; format: in vivo, Bassia scoparia; settings: 0 to 100 scale (0 no effect, 100 complete control); for Plant response rating, Kochia: Preemergence, 500 g ai/ha, visual rating after 10 days; for Kochia plant response rating: Test C, preemergence, 125 g ai/ha
How it was run: as §2

[11] = tested on: oat, wild; experiment: Test C postemergence; format: in vivo, Avena fatua; settings: 10 days
How it was run: as §2

[12] = tested on: barnyardgrass; experiment: Test C preemergence; format: in vivo, Echinochloa crusgalli; settings: 0 to 100 scale (0 no effect, 100 complete control); for Plant response rating, Barnyardgrass: Preemergence, 500 g ai/ha, visual rating after 10 days; for Barnyardgrass plant response rating: Test C, preemergence, 125 g ai/ha
How it was run: as §2

[13] = tested on: ryegrass, Italian; experiment: Test C postemergence; format: in vivo, Lolium multiflorum; settings: 10 days
How it was run: as §2

[14] = tested on: rice; experiment: Test D flooded paddy test; format: in vivo, Oryza sativa; settings: 250 g ai/ha, applied to paddy water, visual rating after 13 to 14 days, scale 0 to 100 (0 no effect, 100 complete control)
How it was run: as §1

[15] = tested on: green foxtail; experiment: Test C postemergence; format: in vivo, Setaria viridis; settings: 10 days
How it was run: as §2

[16] = tested on: corn; experiment: Test C postemergence; format: in vivo, Zea mays; settings: 10 days
How it was run: as §2

[17] = tested on: pigweed, palmer; experiment: Test C preemergence; format: in vivo, Amaranthus palmeri; settings: 0 to 100 scale (0 no effect, 100 complete control); for Plant response rating, Pigweed, Palmer: Preemergence, 500 g ai/ha, visual rating after 10 days
How it was run: as §2

[18] = tested on: green foxtail; experiment: Test C preemergence; format: in vivo, Setaria viridis; settings: 0 to 100 scale (0 no effect, 100 complete control); for Plant response rating, Foxtail, Green: Preemergence, 500 g ai/ha, visual rating after 10 days; for Foxtail, Green plant response rating: Test C, preemergence, 125 g ai/ha
How it was run: as §2

[19] = tested on: oat, wild; experiment: Test C preemergence; format: in vivo, Avena fatua; settings: 0 to 100 scale (0 no effect, 100 complete control); for Plant response rating, Oat, Wild: Preemergence, 500 g ai/ha, visual rating after 10 days; for Oat, Wild plant response rating: Test C, preemergence, 125 g ai/ha
How it was run: as §2

[20] = tested on: sedge, umbrella; experiment: Test D flooded paddy test; format: in vivo, Cyperus difformis; settings: 250 g ai/ha, applied to paddy water, visual rating after 13 to 14 days, scale 0 to 100 (0 no effect, 100 complete control)
How it was run: as §1

[21] = tested on: soybean; experiment: Test C preemergence; format: in vivo, Glycine max; settings: 0 to 100 scale (0 no effect, 100 complete control); for Plant response rating, Soybean: Preemergence, 500 g ai/ha, visual rating after 10 days; for Soybean plant response rating: Test C, preemergence, 125 g ai/ha
How it was run: as §2

[22] = tested on: blackgrass; experiment: Test C postemergence; format: in vivo, Alopecurus myosuroides; settings: 10 days
How it was run: as §2

[23] = tested on: wheat; experiment: Test C preemergence; format: in vivo, Triticum aestivum; settings: 0 to 100 scale (0 no effect, 100 complete control); for Plant response rating, Wheat: Preemergence, 500 g ai/ha, visual rating after 10 days; for Wheat plant response rating: Test C, preemergence, 125 g ai/ha
How it was run: as §2

[24] = tested on: barnyardgrass; experiment: Test C postemergence; format: in vivo, Echinochloa crusgalli; settings: 10 days
How it was run: as §2

[25] = tested on: corn; experiment: Test C preemergence; format: in vivo, Zea mays; settings: 0 to 100 scale (0 no effect, 100 complete control); for Plant response rating, Corn: Preemergence, 500 g ai/ha, visual rating after 10 days; for Corn plant response rating: Test C, preemergence, 125 g ai/ha
How it was run: as §2

[26] = tested on: ryegrass, Italian; experiment: Test C preemergence; format: in vivo, Lolium multiflorum; settings: 0 to 100 scale (0 no effect, 100 complete control); for Plant response rating, Ryegrass, Italian: Preemergence, 500 g ai/ha, visual rating after 10 days; for Ryegrass, Italian plant response rating: Test C, preemergence, 125 g ai/ha
How it was run: as §2

[27] = tested on: wheat; experiment: Test C postemergence; format: in vivo, Triticum aestivum; settings: 10 days
How it was run: as §2

[28] = 125 g ai/ha, postemergence, 0 to 100 scale, 0 no effect, 100 complete control
[29] = Postemergence, 500 g ai/ha, visual 0 to 100 scale (0 no effect, 100 complete control)

Cc1ccc(-n2cnc(CS(C)(=O)=O)n2)cc1C(=O)N1C[C@H](C)Oc2c(Cl)cccc21 [Compound 225]
30: Plant response rating, Wheat [27, 28]
100: Plant response rating, Pigweed, Palmer [2, 29] | Plant response rating, Soybean [6, 28] | Plant response rating, Soybean [6, 29] | Plant response rating, Ducksalad (Flood) [9] | Plant response rating, Kochia [10] | Plant response rating, Barnyardgrass [12] | Plant response rating, Pigweed, Palmer [17] | Pigweed, Palmer plant response rating ([17]; Test C, preemergence, 125 g ai/ha) | Plant response rating, Foxtail, Green [18] | Foxtail, Green plant response rating [18] | Plant response rating, Sedge, Umbrella (Flood) [20]
50: Barnyardgrass plant response rating [12] | Plant response rating, Blackgrass [22, 28]
70: Ragweed plant response rating [7] | Plant response rating, Oat, Wild [11, 29] | Plant response rating, Ryegrass, Italian [13, 28] | Plant response rating, Barnyardgrass [24, 29]
15: Plant response rating, Rice (Flood) [14]
20: Plant response rating, Horseweed [3, 28] | Kochia plant response rating [10] | Plant response rating, Foxtail, Green [15, 28] | Wheat plant response rating [23] | Plant response rating, Barnyardgrass [24, 28] | Corn plant response rating [25]
25: Plant response rating, Barnyardgrass (Flood) [1]
80: Plant response rating, Horseweed [3, 29] | Plant response rating, Blackgrass [4] | Plant response rating, Kochia [8, 28] | Plant response rating, Corn [16, 28] | Soybean plant response rating [21] | Plant response rating, Wheat [23] | Plant response rating, Ryegrass, Italian [26]
60: Blackgrass plant response rating [4] | Plant response rating, Oat, Wild [11, 28] | Oat, Wild plant response rating [19] | Ryegrass, Italian plant response rating [26]
90: Plant response rating, Pigweed, Palmer [2, 28] | Plant response rating, Ragweed [5, 28] | Plant response rating, Ragweed [5, 29] | Plant response rating, Ragweed [7] | Plant response rating, Kochia [8, 29] | Plant response rating, Ryegrass, Italian [13, 29] | Plant response rating, Foxtail, Green [15, 29] | Plant response rating, Corn [16, 29] | Plant response rating, Oat, Wild [19] | Plant response rating, Soybean [21] | Plant response rating, Blackgrass [22, 29] | Plant response rating, Corn [25] | Plant response rating, Wheat [27, 29]

Cc1cn(-c2cccc(C(=O)N3C[C@H](C)Oc4c(C)cccc43)c2)cn1 [Compound 232]
10: Plant response rating, Pigweed, Palmer [2, 29] | Plant response rating, Barnyardgrass [24, 28] | Plant response rating, Wheat [27, 28] | Plant response rating, Wheat [27, 29]
60: Plant response rating, Kochia [8, 29] | Plant response rating, Ryegrass, Italian [13, 29]
50: Plant response rating, Blackgrass [22, 29]
100: Plant response rating, Soybean [6, 28] | Plant response rating, Soybean [6, 29]
30: Plant response rating, Ragweed [5, 29] | Plant response rating, Ryegrass, Italian [13, 28] | Plant response rating, Foxtail, Green [15, 29]
0: Plant response rating, Barnyardgrass (Flood) [1] | Plant response rating, Pigweed, Palmer [2, 28] | Plant response rating, Horseweed [3, 28] | Plant response rating, Horseweed [3, 29] | Plant response rating, Blackgrass [4] | Blackgrass plant response rating [4] | Plant response rating, Ragweed [5, 28] | Plant response rating, Ragweed [7] | Ragweed plant response rating [7] | Plant response rating, Kochia [8, 28] | Plant response rating, Ducksalad (Flood) [9] | Plant response rating, Kochia [10] | Kochia plant response rating [10] | Plant response rating, Oat, Wild [11, 28] | Plant response rating, Oat, Wild [11, 29] | Plant response rating, Barnyardgrass [12] | Barnyardgrass plant response rating [12] | Plant response rating, Rice (Flood) [14] | Plant response rating, Foxtail, Green [15, 28] | Plant response rating, Corn [16, 28] | Plant response rating, Corn [16, 29] | Plant response rating, Pigweed, Palmer [17] | Plant response rating, Foxtail, Green [18] | Foxtail, Green plant response rating [18] | Plant response rating, Oat, Wild [19] | Oat, Wild plant response rating [19] | Plant response rating, Sedge, Umbrella (Flood) [20] | Plant response rating, Soybean [21] | Soybean plant response rating [21] | Plant response rating, Blackgrass [22, 28] | Plant response rating, Wheat [23] | Wheat plant response rating [23] | Plant response rating, Corn [25] | Corn plant response rating [25]
20: Plant response rating, Barnyardgrass [24, 29] | Plant response rating, Ryegrass, Italian [26] | Ryegrass, Italian plant response rating [26]
